Earlier results as cited in patent USRE31980E, “Olefinic derivatives of amino acids” (Merrell Toraude et Compagnie, priority 1983, dated 1985).

Legend:
[1] = test system: γ-aminobutyric acid transaminase
[2] = test system: brain level of γ-aminobutyric acid; conditions: in vivo

| Structure (SMILES) | inhibition of γ-aminobutyric acid transaminase (kind of inhibition), literature [1] | duration of the reversible effect (elevated brain levels of γ-aminobutyric acid), literature [2] |
| --- | --- | --- |
| NCC#CC(=O)O [4-aminotetrolic acid] | competitive reversible inhibitor | – |
| CCCC(CCC)C(=O)O [n-dipropylacetate] | competitively inhibiting | about 2 hours |
